The values below come from US20090105200A1, “Combination therapy” (priority 2007, published 2009).

Data set [1] relates to dexamethasone-resistant (MM.1R) human myeloma cells. Nature of the data set: Apoptosis by Annexin V staining and flow cytometry. Type of data set: cell-based. Conditions: 24 hours; 1 nM romidepsin with 2 nM bortezomib. A general note: In flow cytometry, cells or beads pass a laser one at a time.
In data set [2] the test system is bortezomib-resistant cells (U266/PS-R). Put plainly: Apoptosis by Annexin V-FITC staining and flow cytometry. Format: cell-based, human. Conditions: 48 hours; 2 nM romidepsin with 5-15 nM bortezomib.
The subject of a further data set is primary CLL cells. Nature of the data set: Cell death by 7AAD staining/flow cytometry and Wright-Giemsa stained cytospin slides. Format: cell-based, human. Conditions: 24 hours; for toxicity to CLL cells (photomicrographs): individual treatment, 3 nM.
The next data set concerns NF-κB. Format: cell-based, human. Particulars: romidepsin alone. The method, then:
(§1) Methods. […] Immunoblot analysis (30 μg of protein per condition) was performed to detect cleavage of caspase-12 and PARP, levels of IκB c, phospho-IκBα, p65, p100/p52, as well as expression of NF-κB downstream anti-apoptotic proteins. Parallel studies were performed in two established CLL cell lines (JVM-3 and MEC-2, DSMZ).

In the next data set the test system is Mcl-1. Nature of the data set: Immunoblot analysis of Mcl-1. Type of data set: cell-based, human. As to the method: as §1
In general terms: In western blotting, separated proteins are transferred to a membrane and probed.

Data set [3] is described as follows: Phase I/II dose escalation trial: toxicity and maximum tolerated dose. Conditions: dose level 2; with bortezomib 1.3 mg/m^2 and dexamethasone 20 mg; 28-day cycle. Format: in vivo, human. The source says: The trial design is illustrated in FIG. 10.
Specifically, during phase I (accelerated dose escalation phase), an accelerated titration design was used to ascertain the MTD of romidepsin. For example, if no dose limiting toxicities (DLTs) and <2 patients have moderate toxicities in cycle 1 (C1), the next patient is entered at one level higher. According to National Cancer Institute Common Toxicity Criteria (NCI-CTC) (version 3), DLT is defined as platelets<25×10^9/L; Grade 4 neutropenia despite G-CSF support; Grade 3 or 4 nausea, emesis, or diarrhea despite treatment; any other Grade 3 or 4 non-haematological toxicity; or >4 week suspension of treatment due to toxicity. The accelerated phase ends when one patient has a DLT during C1 or two patients have “moderate” toxicity during first treatment cycles. Patients were entered in cohorts of three according to the standard dose escalation design. A maximum of six patients were treated at any dose level. MTD is defined as the highest dose level at which the incidence of DLT is less than 33%. […]

Another data set concerns NF-κB2 precursor p100. Put plainly: Immunoblot analysis of p100/p52. Conditions: bortezomib with romidepsin. Format: cell-based, human. As to the method:
as §1

The mark [4] stands for this setting: bortezomib 3 nM with romidepsin 3-5 nM, five patients.

In the case of `C/C=C1\NC(=O)[C@H]2CSSCC/C=C/[C@H](CC(=O)N[C@H](C(C)C)C(=O)N2)OC(=O)[C@H](C(C)C)NC1=O` [romidepsin, (1S,4S,10S,16E,21R)-7-[(2Z)-ethylidene]-4,21-diisopropyl-2-oxa-12,13-dithia-5,8,20,23-tetraazabicyclo[8.7.6]tricos-16-ene-3,6,9,19,22-pentanone], the “effect on bortezomib lethality” value in data set [1] was “potentiate bortezomib lethality”. Moreover, the “effect on bortezomib lethality” value in data set [2] is on record as “potentiates bortezomib lethality”. Further, in the data set on primary CLL cells (setting [4]), the “primary CLL samples with additive lethality” value was “additive lethality in one sample” and the “primary CLL samples with increased bortezomib lethality” value is given as “dramatically increased bortezomib lethality in four out of five primary CLL samples”. In addition, the “toxicity to CLL cells (photomicrographs)” value in the data set with primary CLL cells is reported as “relatively non-toxic”. Moreover, in the data set with NF-κB, the NF-κB activity entry is given as “activated NF-κB activity”. Besides, the “bortezomib-induced Mcl-1 accumulation” value with Mcl-1 (cells co-exposed to romidepsin) is “diminished”. Besides, the “maximum tolerated dose of romidepsin” value in data set [3] was 10 mg/m^2.
Consider `CC(C)C[C@H](NC(=O)[C@H](Cc1ccccc1)NC(=O)c1cnccn1)B(O)O` [bortezomib, [(1R)-3-methyl-1-[[(2S)-1-oxo-3-phenyl-2-[(pyrazinylcarbonyl)amino]propyl]amino]butyl]boronic acid], for which, in the data set on primary CLL cells, the “toxicity to CLL cells (photomicrographs)” value was “relatively non-toxic”. Further, the “processing of NF-κB2 precursor p100 into p52” value in the data set with NF-κB2 precursor p100 is “blocked romidepsin-mediated processing of NF-κB2 precursor p100 into its active p52 form”. Moreover, in the data set with Mcl-1 (bortezomib alone), the Mcl-1 level entry is “induced accumulation of Mcl-1”.
